Read-outs that look alike come from different tables or passages of the source. Values belong to the compound of their own block, whether it stands above or below them.
What was measured:
P. aeruginosa AUMC-Pa-3 = test: microbe, parasite or virus in culture; conditions: for MIC: Pseudomonas aeruginosa, AUMCPA3, 18 h, read-out: MICa: MIC of the antibiotic; for FICI / MICac: MIC of the antibiotic in the combination: strain AUMC-Pa-3; for FICI: antibiotic + D-11 (MICb/MICbc 128/4); for MICac: MIC of the antibiotic in the combination: with D-11 at MICbc 4, unit not given
How it was run: (§1)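 After 18 h at 37 °C, the lowest concentration showing no visible growth was read as the MIC. Drugs were serially diluted two-fold in MHB and combined with an equal volume of inoculum (~1 × 10^6 CFU/mL), following CLSI broth microdilution; run in triplicate.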

P. aeruginosa AUMC-Pa-4 = test: microbe, parasite or virus in culture; conditions: for MIC: Pseudomonas aeruginosa, AUMCPA4, 18 h, read-out: MICa: MIC of the antibiotic; for FICI / MICac: MIC of the antibiotic in the combination: strain AUMC-Pa-4; for FICI: antibiotic + D-11 (MICb/MICbc 128/4); for MICac: MIC of the antibiotic in the combination: with D-11 at MICbc 4, unit not given
How it was run: as §1

P. aeruginosa AUMC-Pa-5 = test: microbe, parasite or virus in culture; conditions: for FICI: antibiotic + D-11 (MICb/MICbc 64/4); for MICac: MIC of the antibiotic in the combination: with D-11 at MICbc 4
How it was run: as §1

P. aeruginosa AUMC-Pa-6 = test: microbe, parasite or virus in culture; conditions: for FICI: antibiotic + D-11 (MICb/MICbc 64/4); for MICac: MIC of the antibiotic in the combination: with D-11 at MICbc 4
How it was run: as §1

P. aeruginosa PAO1 = test: microbe, parasite or virus in culture; conditions: PAO1; for MIC: Pseudomonas aeruginosa, PAO1, 18 h, read-out: MICa: the MIC of antibiotics, S3 Table
How it was run: as §1

P. aeruginosa ATCC27853 = test: microbe, parasite or virus in culture; parameters: MICa: MIC of the antibiotic / MICac: MIC of the antibiotic in the combination: unit not given beside the values; conditions: for FICI: antibiotic + D-11 (MICb/MICbc 32/4); for MICac: MIC of the antibiotic in the combination: with D-11 at MICbc 4
How it was run: as §1

P. aeruginosa NR-31040 = test: microbe, parasite or virus in culture; parameters: MICa: MIC of the antibiotic / MICac: MIC of the antibiotic in the combination: unit not given beside the values; conditions: for MIC: Pseudomonas aeruginosa, NR31040, 18 h, read-out: MICa: MIC of the antibiotic; for FICI / MICac: MIC of the antibiotic in the combination: strain NR-31040; for FICI: antibiotic + D-11 (MICb/MICbc 128/4); for MICac: MIC of the antibiotic in the combination: with D-11 at MICbc 4, unit not given
How it was run: as §1

P. aeruginosa NR-31041 = test: microbe, parasite or virus in culture; parameters: MICa: MIC of the antibiotic / MICac: MIC of the antibiotic in the combination: unit not given beside the values; conditions: for MIC: Pseudomonas aeruginosa, NR31041, 18 h, read-out: MICa: MIC of the antibiotic; for FICI / MICac: MIC of the antibiotic in the combination: strain NR-31041; for FICI: antibiotic + D-11 (MICb/MICbc 64/4); for MICac: MIC of the antibiotic in the combination: with D-11 at MICbc 4, unit not given
How it was run: as §1

P. aeruginosa PA14 = test: microbe, parasite or virus in culture; parameters: MICa: MIC of the antibiotic / MICac: MIC of the antibiotic in the combination: unit not given beside the values; conditions: strain PA14; for FICI: antibiotic + D-11 (MICb/MICbc 128/4); for MICa: MIC of the antibiotic: antibiotic alone; for MICa: MIC of the antibiotic / MICac: MIC of the antibiotic in the combination: unit not given; for MICac: MIC of the antibiotic in the combination: with D-11 at MICbc 4
How it was run: as §1

P. aeruginosa PAK = test: microbe, parasite or virus in culture; parameters: MICa: MIC of the antibiotic / MICac: MIC of the antibiotic in the combination: unit not given beside the values; conditions: for MIC: Pseudomonas aeruginosa, 18 h, read-out: MICa: MIC of the antibiotic; for FICI / MICac: MIC of the antibiotic in the combination: strain PAK; for FICI: antibiotic + D-11 (MICb/MICbc 64/4); for MICac: MIC of the antibiotic in the combination: with D-11 at MICbc 4, unit not given
How it was run: as §1

P. aeruginosa HM-214 = conditions: strain HM-214; antibiotic + D-11 (MICb/MICbc 128/4)
How it was run: as §1

P. aeruginosa AUMC-Pa-1 = conditions: strain AUMC-Pa-1; antibiotic + D-11 (MICb/MICbc 128/4)
How it was run: as §1

P. aeruginosa AUMC-Pa-2 = conditions: strain AUMC-Pa-2; antibiotic + D-11 (MICb/MICbc 64/4)
How it was run: as §1

[1] = system: clinical P. aeruginosa isolates; test: microbe, parasite or virus in culture; conditions: Pseudomonas aeruginosa, 18 h, antibiotic alone
How it was run: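 MIC is the lowest drug concentration showing no visible growth after 18 h at 37 °C. Two-fold dilutions in MHB were combined with an equal volume of bacterial suspension (about 1 × 10^6 CFU/mL), following CLSI broth microdilution, in triplicate.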

[2] = strain AUMC-Pa-5, unit not given
[3] = strain AUMC-Pa-6, unit not given
[4] = S3 Table, antibiotic + 2 μM D-11
[5] = S3 Table, antibiotic + 4 μM D-11
[6] = strain ATCC27853, unit not given
[7] = read-out: Antibiotic sensibility (MIC) of clinical P. aeruginosa isolate AUMC-Pa-1, strain AUMC-Pa-1
[8] = read-out: Antibiotic sensibility (MIC) of clinical P. aeruginosa isolate AUMC-Pa-2, strain AUMC-Pa-2
[9] = read-out: Antibiotic sensibility (MIC) of clinical P. aeruginosa isolate AUMC-Pa-3, strain AUMC-Pa-3
[10] = read-out: Antibiotic sensibility (MIC) of clinical P. aeruginosa isolate AUMC-Pa-4, strain AUMC-Pa-4
[11] = read-out: Antibiotic sensibility (MIC) of clinical P. aeruginosa isolate AUMC-Pa-5, strain AUMC-Pa-5
[12] = read-out: Antibiotic sensibility (MIC) of clinical P. aeruginosa isolate AUMC-Pa-6, strain AUMC-Pa-6
[13] = read-out: Antibiotic sensibility (MIC) of clinical P. aeruginosa isolate HM-214, strain HM-214
[14] = read-out: Antibiotic sensibility (MIC) of clinical P. aeruginosa isolate NR-31040, strain NR-31040
[15] = read-out: Antibiotic sensibility (MIC) of clinical P. aeruginosa isolate NR-31041, strain NR-31041

MIC (P. aeruginosa AUMC-Pa-3): 16 µM | MICac: MIC of the antibiotic in the combination (P. aeruginosa AUMC-Pa-3): 0.5 | MIC (P. aeruginosa AUMC-Pa-4): 16 µM | MICac: MIC of the antibiotic in the combination (P. aeruginosa AUMC-Pa-4): 0.5 | MICa: MIC of the antibiotic (P. aeruginosa AUMC-Pa-5; strain AUMC-Pa-5, antibiotic alone, unit not given): 8 | MICac: MIC of the antibiotic in the combination (P. aeruginosa AUMC-Pa-5; [2]): 2 | MICa: MIC of the antibiotic (P. aeruginosa AUMC-Pa-6; strain AUMC-Pa-6, antibiotic alone, unit not given): 16 | MICac: MIC of the antibiotic in the combination (P. aeruginosa AUMC-Pa-6; [3]): 1 | MIC (P. aeruginosa PAO1; antibiotic alone): 16 µM | MICac: the MIC for the antibiotic in the combination (P. aeruginosa PAO1; S3 Table, with 2 μM D-11): 0.5 µM | MICac: the MIC for the antibiotic in the combination (P. aeruginosa PAO1; S3 Table, with 4 μM D-11): 0.25 µM | MICa: the MIC of antibiotics (P. aeruginosa PAO1; S3 Table, antibiotic alone): 16 µM | MIC (P. aeruginosa ATCC27853; Pseudomonas aeruginosa, ATCC27853, 18 h, read-out: MICa: MIC of the antibiotic): 16 µM | MICac: MIC of the antibiotic in the combination (P. aeruginosa ATCC27853; [6]): 0.5 | MIC (P. aeruginosa NR-31040): 16 µM | MICac: MIC of the antibiotic in the combination (P. aeruginosa NR-31040): 0.125 | MIC (P. aeruginosa NR-31041): 16 µM | MICac: MIC of the antibiotic in the combination (P. aeruginosa NR-31041): 0.5 | MICa: MIC of the antibiotic (P. aeruginosa PA14): 16 | MICac: MIC of the antibiotic in the combination (P. aeruginosa PA14): 1 | MIC (P. aeruginosa PAK): 16 µM | MICac: MIC of the antibiotic in the combination (P. aeruginosa PAK): 0.5 | MIC [1, 7]: 32 µM | MIC [1, 8]: 8 µM | MIC [1, 9]: 16 µM | MIC [1, 10]: 16 µM | MIC [1, 11]: 8 µM | MIC [1, 12]: 16 µM | MIC [1, 13]: 16 µM | MIC [1, 14]: 16 µM | MIC [1, 15]: 16 µM
SMILES: C[C@H]1c2cccc(O)c2C(=O)C2=C(O)[C@]3(O)C(=O)C(C(N)=O)=C(O)[C@@H](N(C)C)[C@@H]3[C@@H](O)[C@@H]21 [Doxycycline]
FICI (P. aeruginosa AUMC-Pa-3): 0.063 | FICI (P. aeruginosa AUMC-Pa-4): 0.063 | FICI (P. aeruginosa AUMC-Pa-5; strain AUMC-Pa-5): 0.313 | FICI (P. aeruginosa AUMC-Pa-6; strain AUMC-Pa-6): 0.125 | FICI (P. aeruginosa PAO1; [4]): 0.094 | FICI (P. aeruginosa PAO1; [5]): 0.141 | FICI (P. aeruginosa ATCC27853; strain ATCC27853): 0.156 | FICI (P. aeruginosa NR-31040): 0.039 | FICI (P. aeruginosa NR-31041): 0.094 | FICI (P. aeruginosa PA14): 0.094 | FICI (P. aeruginosa PAK): 0.094 | FICI (P. aeruginosa HM-214): 0.063 | FICI (P. aeruginosa AUMC-Pa-1): 0.063 | FICI (P. aeruginosa AUMC-Pa-2): 0.188

MIC (P. aeruginosa AUMC-Pa-3): > 128 µM | MICac: MIC of the antibiotic in the combination (P. aeruginosa AUMC-Pa-3): 32 | MIC (P. aeruginosa AUMC-Pa-4): > 128 µM | MICac: MIC of the antibiotic in the combination (P. aeruginosa AUMC-Pa-4): >128/>128 | MIC (P. aeruginosa AUMC-Pa-5; Pseudomonas aeruginosa, AUMCPA5, 18 h, read-out: MICa: MIC of the antibiotic): > 128 µM | MICac: MIC of the antibiotic in the combination (P. aeruginosa AUMC-Pa-5; [2]): >128/128 | MIC (P. aeruginosa AUMC-Pa-6; Pseudomonas aeruginosa, AUMCPA6, 18 h, read-out: MICa: MIC of the antibiotic): > 128 µM | MICac: MIC of the antibiotic in the combination (P. aeruginosa AUMC-Pa-6; [3]): >128/>128 | MIC (P. aeruginosa PAO1; antibiotic alone): > 128 µM | MICa: MIC of the antibiotic (P. aeruginosa ATCC27853; strain ATCC27853, antibiotic alone, unit not given): 128 | MICac: MIC of the antibiotic in the combination (P. aeruginosa ATCC27853; [6]): 8 | MIC (P. aeruginosa NR-31040): > 128 µM | MICac: MIC of the antibiotic in the combination (P. aeruginosa NR-31040): >128/128 | MIC (P. aeruginosa NR-31041): > 128 µM | MICac: MIC of the antibiotic in the combination (P. aeruginosa NR-31041): >128/128 | MICa: MIC of the antibiotic (P. aeruginosa PA14): 128 | MICac: MIC of the antibiotic in the combination (P. aeruginosa PA14): 32 | MIC (P. aeruginosa PAK): > 128 µM | MICac: MIC of the antibiotic in the combination (P. aeruginosa PAK): 64 | MIC [1, 7]: > 128 µM | MIC [1, 8]: 128 µM | MIC [1, 9]: > 128 µM | MIC [1, 10]: > 128 µM | MIC [1, 11]: > 128 µM | MIC [1, 12]: > 128 µM | MIC [1, 13]: > 128 µM | MIC [1, 14]: > 128 µM | MIC [1, 15]: > 128 µM
SMILES: C[C@@H]1O[C@@H]1P(=O)(O)O [Fosfomycin]
FICI (P. aeruginosa AUMC-Pa-3): 0.156 | FICI (P. aeruginosa AUMC-Pa-4): 1.031 | FICI (P. aeruginosa AUMC-Pa-5; strain AUMC-Pa-5): 0.563 | FICI (P. aeruginosa AUMC-Pa-6; strain AUMC-Pa-6): 1.063 | FICI (P. aeruginosa PAO1; [4]): 0.188 | FICI (P. aeruginosa PAO1; [5]): 0.188 | FICI (P. aeruginosa ATCC27853; strain ATCC27853): 0.188 | FICI (P. aeruginosa NR-31040): 0.531 | FICI (P. aeruginosa NR-31041): 0.563 | FICI (P. aeruginosa PA14): 0.281 | FICI (P. aeruginosa PAK): 0.313 | FICI (P. aeruginosa HM-214): 0.281 | FICI (P. aeruginosa AUMC-Pa-1): 0.281 | FICI (P. aeruginosa AUMC-Pa-2): 0.188

Source: paper PMC8445441, “Elucidating the mechanism by which synthetic helper peptides sensitize Pseudomonas aeruginosa to multiple antibiotics” (PLoS Pathogens, 2021)
